Experimental data from patent US20120022129A1, “Targeting of Histone Deacetylase 2, Protein Kinase CK2, and Nuclear Factor NRF2 For Treatment of Inflammatory Diseases” (priority 2008, published 2012).
Where a SMILES comes first, the peptide text is derived from it. [ ]: non-standard residue; d: D form. Nle = CCCC[C@H](N)C(=O)O

Experiments:
[1] = tested on: HDAC2; experiment: Phosphorylation of immunoprecipitated HDAC2 in MonoMac6 cells; settings: okadaic acid 1 μM, 0.5 and 1 h
Method: MonoMac6 cells were washed with Ca^2+/Mg^2+ free PBS and seeded at a density of 5.0×10^6 cells in 100 mm culture plates in a total volume of 7 ml RPMI-1640 containing 0.5% FBS. Cells were treated with CSE (2.5%) or Okadaic acid (40 nM and 1 μM) (Alexis Biochemicals, San Diego, Calif.). For treatments with protein casein kinase CK2 inhibitor, 4,5,6,7-tetrabromobenzotriazole (TBB), cells were pretreated with 20 μM TBB (Sigma, St. Louis, Mo.) for 1 or 2 h, cells were then washed with sterile PBS before treatment with CSE. […] Cells were treated with CSE (2.5%), washed in ice-cold sterile Ca^2+/Mg^2+ free PBS and lysed in RIPA buffer (50 mM Tris HCl pH 7.4, 150 mM NaCl, 0.25 mM EDTA, 5 mM NaF, 0.1% sodium deoxycholate, 1% Triton X-100); cell extracts and cell culture media were stored at −80° C. until analyzed.
Cell lysate (200 μg protein) was incubated for overnight with anti-HDAC2 (2 μg) at 4° C., then immunoprecipitated with Protein G-agarose beads for 1 h with constant agitation. Beads were washed at least four times with RIPA buffer, boiled for 10 minutes in 35 μl 2× sample buffer and resolved on a 7.5% SDS-polyacrylamide gel. Cell lysate controls were used. Blots were probed with p-serine (1:1000) and p-threonine (1:1000) (Cell Signaling, Boston, Mass.) monoclonal antibodies for studies on the post-translational modification of HDAC2.

[2] = tested on: HDAC2; experiment: HDAC2 immunostaining (localization) in MonoMac6 cells; type: cell-based, human; settings: okadaic acid 1 μM, 0.5 h
Method: (B) Relative density of HDAC2 levels in human macrophage cells (MonoMac6 cells) at various time points of exposure to CSE.
To determine if CSE induced significant HDAC2 nucleo-cyloplasmic shuttling, MonoMac6 cells were treated with CSE (2.5%) for 4 and 6 h, cells were fixed in 4% paraformaldehyde and immunostained with anti-HDAC2 antibodies to determine HDAC2 localization. […] To determine whether shuttling occurred at earlier time points subsequent to degradation of HDAC2, MonoMac6 cells were exposed to CSE (2.5%) for 0.5 h and 1 h (data not shown).
(§1) To further confirm this hypothesis, it was determined if exposure to okadaic acid would induce ubiquitination and degradation of HDAC2. […] Immunoprecipitated HDAC2 was then assayed for the presence of ubiquitinated residues using specific ubiquitin anti-sera by western blot. […] To further confirm the hypothesis, MonoMac6 cells were treated with okadaic acid (1 μM) for 0.5 h, cells were fixed in 4% paraformaldehyde and immunostained with anti-HDAC2 antibodies to determine HDAC2 localization.

[3] = tested on: CK2α; experiment: CK2α phosphorylation in H292 cells; type: cell-based, human; settings: okadaic acid 100 nM and 1 μM, 0.5 and 1 h
Method: FIG. 15: CK2α Is Phosphorylated In Response to CSE. […] 80 μg whole cell lysates were then treated with 400 U of λ-phosphatase or buffer alone for 1 h at 30° C. The reaction was stopped by adding equal volume of 2× sample buffer and relative CK2α expression determined by western blotting. D) H292 cells were treated with 100 nM and 1 μM okadaic acid for 0.5 and 1 h. Relative CK2α expression was determined by western blotting using 20 μg whole cell lysates.

[4] = tested on: MonoMac6 cells; type: cell-based, human
Method: In this study, it was determined the time-dependent effect of CSE on class I HDAC levels MonoMac6 cells were exposed to CSE (2.5%) for 0.5, 1, 2, 4 and 6 h. […] To determine whether class 1 HDAC degradation was due to decreased CSE-induced cell viability, the levels of lactate dehydrogenase (LDH) secreted into conditioned cell media was measured immediately after harvest.

[5] = tested on: HDAC2; experiment: Ubiquitination of immunoprecipitated HDAC2 in MonoMac6 cells; type: cell-based, human
Method: FIG. 4: CSE-mediated degradation of HDAC2 is ubiquitin-proteasome dependent in MonoMac6 cells. […] Immunoprecipitated HDAC2 was assayed for bound ubiquitin using specific ubiquitin anti-sera. […] (D) The relative density of ubiquitin expression in MonoMac6 cells after proteasome inhibition of CSE-induced HDAC2 degradation normalized to immunoprecipitated HDAC2.
(§2) Cell lysate controls were used.
as §1

[6] = tested on: LPS-induced lung inflammation; experiment: LPS-induced lung inflammation in WT mice; type: in vivo, mouse
Method: LPS exposure studies in mice were performed as described previously. Briefly, age-matched WT, Nrf2−/− and HDAC2−/− were exposed to aerosolized Escherichia coli LPS (1 mg/ml) for 8 minutes. Aerosolized saline-exposed mice were used as controls, and animals were sacrificed at 24 h post last exposure.
Corticosteroid treatment.
Bronchoalveolar lavage. Mice were anaesthetized by pentobarbital (Abbott Laboratories, Abbott Park, Ill.) intraperitoneal injection (100 mg/kg body weight) before sacrifice. Lungs were then removed and lavaged three times with 0.6 ml of 0.9% sodium chloride with cannula inserted into the trachea. Total lavage fluid for each mouse was combined and then centrifuged. Supernatants were frozen at −80° C. until required for further analysis and cell pellets resuspended in 1 ml of saline, and total number of cells determined using a haemocytometer. Differential counts (minimum 500 per slide) were determined using Diff-Quik (Dade Behring, Newark, Del.)-stained cytospin slides.
Cytokine Analysis. Monocyte chemotactic protein 1 (MCP-1) levels were measured from mouse lung soluble protein by enzyme-linked immunosorbent assay (ELISA) with the duo-antibody kit (R & D Systems). Results were normalized to protein concentration per sample.

[7] = tested on: LPS-induced lung inflammation; experiment: LPS-induced lung inflammation in HDAC2−/− mice; type: in vivo, mouse
Excerpt: Mice. The Nrf2 knockout (KO) mouse strain (Nrf2−/− on C57BL/6J background) used in this study is described earlier and was generously supplied by Prof. Masayuki Yamamoto, University of Tsukuba, Japan via the RIKEN BioResource Center, Tsukuba, Japan. HDAC2 mutant (HDAC2−/− on C57BL/6J background) mice were kindly provided by Dr. J. A. Epstein (University of Pennsylvania School of Medicine, Philadelphia, Pa.). […] Wild-type (WT) C57BL/6J mice were purchased from Jackson laboratories (Bar Harbor, Me.). All animal protocols for this study were approved by the University Committee on Animal Research of the University of Rochester.
LPS exposure studies in mice were performed as described previously. Briefly, age-matched WT, Nrf2−/− and HDAC2−/− were exposed to aerosolized Escherichia coli LPS (1 mg/ml) for 8 minutes. […]
Bronchoalveolar lavage. […] Supernatants were frozen at −80° C. until required for further analysis and cell pellets resuspended in 1 ml of saline, and total number of cells determined using a haemocytometer. Differential counts (minimum 500 per slide) were determined using Diff-Quik (Dade Behring, Newark, Del.)-stained cytospin slides.
Cytokine Analysis. Monocyte chemotactic protein 1 (MCP-1) levels were measured from mouse lung soluble protein by enzyme-linked immunosorbent assay (ELISA) with the duo-antibody kit (R & D Systems). […]

[8] = tested on: HDAC2; experiment: HDAC2 levels by western blot in MonoMac6 cells; settings: then CSE 2.5% 6 h
Method: The human monocyte-macrophage cell line (MonoMac6) was established from the peripheral blood of a subject with monoblastic leukemia (21). […]
MonoMac6 cells were washed with Ca^2+/Mg^2+ free PBS and seeded at a density of 5.0×10^6 cells in 100 mm culture plates in a total volume of 7 ml RPMI-1640 containing 0.5% FBS. […] Cells were treated with CSE (2.5%), washed in ice-cold sterile Ca^2+/Mg^2+ free PBS and lysed in RIPA buffer (50 mM Tris HCl pH 7.4, 150 mM NaCl, 0.25 mM EDTA, 5 mM NaF, 0.1% sodium deoxycholate, 1% Triton X-100); cell extracts and cell culture media were stored at −80° C. until analyzed.
Cells were lysed in 100 μl RIPA buffer supplemented with protease inhibitor cocktail (leupeptin, aprotinin, pepstatin and PMSF) and stored at −80° C. […] After extensive washing, primary antibodies were detected with secondary antibodies linked to horseradish peroxidase (Dako, Carpinteria, Calif.) and bound complex detected with enhanced chemiluminescence (PerkinElmer, Waltham, Mass.).

[9] = tested on: HDAC2; experiment: Co-immunoprecipitation of flag-tagged HDAC2 with binding partners in H292 cells; type: cell-based, human; settings: H292, flag-tagged WT HDAC2; TBB 40 μM 2 h and 90 μM 0.5 h, then CSE 2.5% 0.5 h
Method: FIG. 16: HDAC2 serine phosphorylation is associated with increased interaction with catalytic subunits of protein kinase CK2 in response to CSE. A) Bronchial epithelial H292 cells transfected with either a control vector (control V) or flag-tagged WT HDAC2 were treated with 2.5% CSE for 0.5 h. […] C) Bronchial epithelial H292 cells transfected with flag-tagged WT HDAC2 were treated with either 2.5% CSE for 0.5 h, 25 or 50 μM Acrolein for 1 h and 200 μM H202 for 0.5 and 2 h respectively.
A) H292 cells cultured on 8-well chamber slides were treated with 2.5% CSE for 0.5 h or 50 μM Acrolein for 1 h, washed and fixed with 4% PFA. Slides were incubated with HDAC2 and α-tubulin antibodies overnight at […]. Slides were mounted with antifade mounting solution and images analysed by an Olympus inverted microscope. B) H292 cells were transfected with plasmid vector (Ctrl V) or flag-tagged WT HDAC2 (1-488) for 24 h with lipofectamine 2000. Cells were treated with 2.5% CSE for 0.5 h and flag proteins immunoprecipitated using M2 anti-flag antibodies overnight at 4° C. HDAC1 and C) p53 interaction were determined by western blot. D) H292 cells were transfected with plasmid vector (Ctrl V), flag-tagged WT HDAC2 (1-488) or S^394/^411/^422/^424A and 1-400 amino acid HDAC2 mutants for 24 h with lipofectamine 2000. Cells were then exposed to 2.5% CSE for 0.5 h. Levels of HDAC2 interaction with HDAC1 were determined by western blotting using specific antibodies. E) H292 cells were transfected with flag-tagged WT HDAC2 (1-488) for 24 h with lipofectamine 2000. […] Levels of phospho-serine and HDAC2 interaction with SAP30, RbAp46/48, MBD3 and p65 were determined by western blotting using specific antibodies respectively. […] Levels of HDAC1 and p65 binding to immunoprecipitated flag-tagged HDAC2 was determined by western blotting. […] Deacetylase activity of immunoprecipitated HDAC2 was determined using a specific HDAC2 deacetylase activity kit. Data expressed as mean±SEM (n=3). *** P<0.001 significant compared to control treatments.

[10] = tested on: HDAC2; experiment: Serine phosphorylation of immunoprecipitated HDAC2 in H292 cells; type: cell-based, human
Method: FIG. 6: CSE induced CK2-dependent HDAC2 phosphorylation in bronchial epithelial and small airway epithelial cells. [A (i)] H292 cells were treated with CSE (2.5%) for 0.5, 1, 2 and 4 h. Immunoprecipitated HDAC2 was analyzed for phosphorylation of serine residues using specific phospho-serine antibodies by SDS polyacrylamide gel. CSE induced significant cyclical phosphorylation of HDAC2 on serine residues at 0.5, 1 and 4 h. [A (ii)] Relative density of phosphor-serine expression normalized to immunoprecipitated HDAC2. [B (i)] […] Immunoprecipitated HDAC2 from whole cell lysates was probed for phosphorylation of serine residues, CSE induced a dose-dependent increase in HDAC2 serine phosphorylation. [B (ii)] Relative density of phospho-serine expression normalized to immunoprecipitated HDAC2. (C) H292 cells were treated with or without specific CK2 inhibitor, TBB. for 1 h, cells were washed with sterile 1×PBS and then treated with freshly prepared CSE (2.5%) for 0.5 h, Immunoprecipitated HDAC2 was assayed for phosphorylation on serine residues. […] (D) Relative density of phosphor-serine expression normalized to immunoprecipitated HDAC2.
FIG. 14: Loss of Serine Sites S^394, S^422, S^424 Abrogates Cigarette Smoke Extract (CSE)-Induced Phosphatase-Independent HDAC2 Phosphorylation. A) Bronchial epithelial H292 cells were transfected with plasmid vector or flag-tagged WT HDAC2 (1-488) for 24 h using lipofectamine 2000 and then treated with or without 2.5% CSE for 0.5 h or B) 50 μM. acrolein for 1 h. Flag-tagged proteins were immunoprecipitated overnight and serine phosphorylation detected by western blots using phospho-serine antibodies. C) Flag-tagged WT HDAC2 was immunoprecipitated from whole cell lysates of H292 cells treated with 2.5% CSE for 0.5 h. Immunoprecipates were then washed and treated with 400 U of λ-phosphatase or buffer alone for 1 h at 30° C. Phosphorylation of serine sites were detected by western blots using anti-serine antibodies. D) H292 cells were transfected with plasmid vector, flag-tagged WT HDAC2 (1-488) or S394A, S394/411/422/424A and 1-400 aa HDAC2 mutants for 24 h with lipofectamine 2000. Cells were then treated with 2.5% CSE for 0.5 h. Serine phosphorylation of immunoprecipitated flag proteins was determined by western blot. E) Phosphatase activity was determined using non-radioactive assay system (Promega). H292 cells were treated with or without 2.5% CSE for 0.5, 2 and 6 h with serine/threonine […] (okadaic acid) used as a positive control. 5 μg protein was incubated with PP2A specific-peptide substrate RRA(pT)VA and reaction buffer for 15 minutes in a 96-well plate. Molybdate dye/additive mixture was added to stop the reaction and color allowed to develop for 15 minutes. Optical density of samples was determined using a microplate reader with a 630 nm filter.
FIG. 18: Protein Kinase CK2 Inhibitors Blocks CSE-Induced HDAC2 Phosphorylation. A) Bronchial epithelial H292 cells transfected with a flag-tagged WT HDAC2 plasmid were treated with 2.5% CSE for 0.5 h. […] B) Relative density of phospho-serine expression normalized to immunoprecipitated HDAC2. Data expressed as mean±SEM (n=3). *** P<0.001, ### P<0.001 significant compared to control treatments.
as §2

[11] = tested on: A549 epithelial cells; experiment: Histone acetylation:deacetylation in A549 epithelial cells; type: cell-based
Excerpt: The effect of cigarette smoke extract/condensate (CSC/CSE) and oxidative stress on histone acetylation:deacetylation and pro-inflammatory gene transcription in A549 epithelial cells has been investigated. […] CSE-mediated decrease in HDAC2 level was associated with posttranslational modifications by 4-hydroxy-2-nonenal and nitric oxide radicals generated by cigarette smoke exposure.

C=C1[C@@H](O)[C@@H]2O[C@]3(CC[C@H](/C=C/[C@@H](C)[C@@H]4CC(C)=C[C@@]5(O[C@H](C[C@@](C)(O)C(=O)O)CC[C@H]5O)O4)O3)CC[C@H]2O[C@@H]1[C@@H](O)C[C@H](C)[C@H]1O[C@@]2(CCCCO2)CC[C@H]1C [okadaic acid]
phosphorylation of HDAC2 on serine residues [1]: significantly induced the phosphorylation of HDAC2 on serine residues
nuclear HDAC2 (immunostaining) [2]: significantly induced the loss of nuclear HDAC2
nucleo-cytoplasmic shuttling of HDAC2 [2]: no nucleo-cytoplasmic shuttling of HDAC2 was observed
CK2α phosphorylation [3]: induced CK2α phosphorylation
toxicity to cells (trypan blue viability, morphology) ([4]; okadaic acid 40 nM, 24 h): not toxic to the cells
cell death ([4]; okadaic acid 1 μM, beyond 1 h): induced cell death
ubiquitination of HDAC2 ([5]; okadaic acid 40 nM, 24 h): significantly induced the ubiquitination of HDAC2

CCCC1O[C@@H]2C[C@H]3[C@@H]4CCC5=CC(=O)C=C[C@]5(C)[C@H]4[C@@H](O)C[C@]3(C)[C@]2(C(=O)CO)O1 (stereo partly drawn) [budesonide]
attenuation of lung neutrophil influx following LPS exposure ([6]; budesonide 3 mg/kg pretreatment): ~50%
efficacy in decreasing MCP-1 release ([6]; budesonide, LPS exposure): 49.4%
neutrophil counts in BALF ([7]; budesonide 3 mg/kg pretreatment, LPS): no effect
efficacy in decreasing MCP-1 release ([7]; budesonide, LPS exposure): 26.4%

CCCC[C@@H](C=O)NC(=O)[C@H](CC(C)C)NC(=O)[C@H](CC(C)C)NC(C)=O [ALLN, N-Acetyl-Leu-Leu-Nle-CHO] (Ac-Leu-Leu-[Nle]-aldehyde)
CSE-induced HDAC2 degradation ([8]; ALLN 1 μM and 5 μM pretreated 2 h): dose-dependently inhibited HDAC2 degradation
CSE-induced HDAC2 ubiquitination ([5]; ALLN 1 μM pre-treatment, CSE 2.5% 6 h): further enhanced

Brc1c(Br)c(Br)c2[nH]nnc2c1Br [TBB]
CSE-induced HDAC2 degradation ([8]; TBB 20 μM pre-treated 2 h): significantly attenuated HDAC2 degradation
HDAC2 interaction with HDAC1 and p65 [9]: blocked HDAC2 interaction with both HDAC1 and p65
CSE-induced HDAC2 phosphorylation ([10]; H292, flag-tagged WT HDAC2, TBB 50 μM pre-treated 2 h, then CSE 2.5% 0.5 h): completely inhibiting CSE-induced HDAC2 phosphorylation
CSE-induced HDAC2 phosphorylation ([10]; H292, TBB 20 μM pretreated 1 h, then CSE 0.5 h): completely reversed CSE-induced HDAC2 phosphorylation
CSE-induced HDAC2 phosphorylation ([10]; H292, TBB 25 μM pre-treated, then CSE): inhibit HDAC2 phosphorylation but not as efficiently

OO [H2O2, hydrogen peroxide]
histone deacetylase (HDAC) activity and HDAC2 protein levels ([11]; H2O2): inhibited
histone acetylation (with histone acetyltransferase activity) ([11]; hydrogen peroxide 100 μM): caused an increase in histone acetylation
HDAC2 phosphorylation ([10]; H292, flag-tagged WT HDAC2, H2O2 200 μM, 0.5 and 2 h): inability
